Values quoted from earlier work in patent publication US20240299549A1, “STABLE FORMULATIONS OF INDOCYANINE GREEN” (PROVEPHARM LIFE SOLUTIONS, priority 2021, published 2024).

Legend:
[1] = 10 hours of storage in water and direct light
[2] = stored at 4° C. in the dark, three days

CC1(C)C(/C=C/C=C/C=C/C=C2\N(CCCCS(=O)(=O)[O-])c3ccc4ccccc4c3C2(C)C)=[N+](CCCCS(=O)(=O)[O-])c2ccc3ccccc3c21.[Na+] [ICG, Indocyanine green]
reduction of absorbance at spectral peak [1]: 10%
fluorescence intensity lost [2]: 20%
